Data set [1] addresses T1, human recombinant GIP receptor (Homo sapiens, UniProt P48546).
T1 construct: expressed in transfected cells; host or cells: CHO-K1 clonal cells (membrane preparation)
T1 sequence (P48546 22-466): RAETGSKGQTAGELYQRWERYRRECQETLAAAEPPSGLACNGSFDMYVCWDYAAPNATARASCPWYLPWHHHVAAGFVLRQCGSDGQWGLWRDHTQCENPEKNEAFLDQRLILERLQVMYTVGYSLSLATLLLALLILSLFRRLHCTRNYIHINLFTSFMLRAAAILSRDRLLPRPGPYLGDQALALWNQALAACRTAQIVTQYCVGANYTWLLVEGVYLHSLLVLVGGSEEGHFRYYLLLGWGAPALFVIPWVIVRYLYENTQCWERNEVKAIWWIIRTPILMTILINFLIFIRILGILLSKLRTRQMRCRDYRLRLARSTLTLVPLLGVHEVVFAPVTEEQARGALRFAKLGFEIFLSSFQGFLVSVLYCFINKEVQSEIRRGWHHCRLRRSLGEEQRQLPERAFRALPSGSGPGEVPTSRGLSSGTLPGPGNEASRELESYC
As to the kind of experiment: In vitro hGIP receptor binding assay. The procedure:
A. In Vitro hGIP Receptor Binding Assay […] The incubations were terminated by rapid filtration through GF/C filters (pre-soaked in 0.5% polyethylenimine) using a Brandel filtration manifold. Each tube and filter were then washed three times with 5-ml aliquots of ice-cold buffer.

Data set [2] can be described thus: Human plasma half-life assay. The conditions noted are these: 37° C., LC-MS, read-out: Human Plasma T½ (converted). The data set is classed as in vitro ADME. The protocol: (§1) B. Human and Rat Plasma Half-Life Assay
(§2) 50 μl was removed at various times, like at 0, 1, 2, 3, 4, 8, 24, 32, 48, 56, 72 hours, mixed with 5 μl formic acid and 150 μL acetonitrile in a microcentrifuge tube, vertexed, and centrifuged for 10 minutes at 10 K rpm. The supernatant was transferred to an injection vial and analyzed by LC-MS. The LC-MS system consisted of an API4000 mass spectrometer with an ESI probe. Positive ion mode and full scan detection were used. HPLC separation was carried out on a Luna 3μ. C8 (2), 2×30 mm column with a gradient from 90% A to 90% B in 10 minutes at a flow rate of 0.3 ml/min. Buffer A was 1% formic acid in water and buffer B was 1% formic acid acetonitrile.

Data set [3] is described as follows: Rat plasma half-life assay. The data set is classed as in vitro ADME. Particulars: 37° C., LC-MS, read-out: Rat Plasma T½ (converted). The protocol: as §1, §2

Consider `CCCC[C@H](NC(=O)[C@H](C)NC(=O)[C@@H](NC(=O)C1(NC(=O)[C@H](Cc2ccc(O)cc2)NC(=O)[C@H](CC(=O)O)NC(=O)[C@H](CO)NC(=O)[C@@H](NC(=O)[C@H](Cc2ccccc2)NC(=O)[C@@H](NC(=O)CNC(=O)[C@H](CCC(=O)O)NC(=O)C(C)(C)NC(=O)[C@@H](N)Cc2cccc(F)c2)[C@@H](C)O)[C@@H](C)CC)CCCC1)[C@@H](C)CC)C(=O)N[C@@H](CC(=O)O)C(=O)N[C@@H](CCCCN)C(=O)N[C@H](C(=O)N[C@@H](Cc1c[nH]cn1)C(=O)N[C@@H](CCC(N)=O)C(=O)N[C@@H](CCC(N)=O)C(=O)N[C@@H](CC(=O)O)C(=O)N[C@@H](Cc1ccccc1)C(=O)N[C@H](C(=O)N[C@@H](CC(N)=O)C(=O)N[C@@H](Cc1c[nH]c2ccccc12)C(=O)N[C@@H](CC(C)C)C(=O)N[C@@H](CC(C)C)C(=O)N[C@@H](C)C(=O)N[C@@H](CCC(N)=O)C(=O)N[C@@H](CCCCN)C(=O)NCC(=O)N[C@@H](CCCCN)C(=O)N[C@@H](CCCCN)C(=O)N[C@@H](CC(N)=O)C(=O)N[C@@H](CC(=O)O)C(=O)N[C@@H](Cc1c[nH]c2ccccc12)C(=O)N[C@@H](CCCCN)C(=O)N[C@@H](Cc1c[nH]cn1)C(=O)N[C@@H](CC(N)=O)C(=O)N[C@H](C(=O)N[C@H](C(=O)N[C@@H](CCC(N)=O)C(=O)O)[C@@H](C)O)[C@@H](C)CC)C(C)C)[C@@H](C)CC` [Example 23, (3F-Phe^1, Aib^2, A5c^11, Nle^14)hGIP(1-42)-OH], for which the Ki in data set [1] is 2.7 nM. Also, the half-life at 0.1 mg/ml in data set [2] and in data set [3] was > 74 h in each case.

`CCCC[C@H](NC(=O)[C@H](C)NC(=O)[C@@H](NC(=O)C1(NC(=O)[C@H](Cc2ccc(O)cc2)NC(=O)[C@H](CC(=O)O)NC(=O)[C@H](CO)NC(=O)[C@@H](NC(=O)[C@H](Cc2ccccc2)NC(=O)[C@@H](NC(=O)CNC(=O)[C@H](CCC(=O)O)NC(=O)C(C)(C)NC(=O)[C@@H](N)Cc2c(C)cc(O)cc2C)[C@@H](C)O)[C@@H](C)CC)CCCC1)[C@@H](C)CC)C(=O)N[C@@H](CC(=O)O)C(=O)N[C@@H](CCCCN)C(=O)N[C@H](C(=O)N[C@@H](Cc1c[nH]cn1)C(=O)N[C@@H](CCC(N)=O)C(=O)N[C@@H](CCC(N)=O)C(=O)N[C@@H](CC(=O)O)C(=O)N[C@@H](Cc1ccccc1)C(=O)N[C@H](C(=O)N[C@@H](CC(N)=O)C(=O)N[C@@H](Cc1c[nH]c2ccccc12)C(=O)N[C@@H](CC(C)C)C(=O)N[C@@H](CC(C)C)C(=O)N[C@@H](C)C(=O)N[C@@H](CCC(N)=O)C(=O)N[C@@H](CCCCN)C(=O)NCC(=O)N[C@@H](CCCCN)C(=O)N[C@@H](CCCCN)C(=O)N[C@@H](CC(N)=O)C(=O)N[C@@H](CC(=O)O)C(=O)N[C@@H](Cc1c[nH]c2ccccc12)C(=O)N[C@@H](CCCCN)C(=O)N[C@@H](Cc1c[nH]cn1)C(=O)N[C@@H](CC(N)=O)C(=O)N[C@H](C(=O)N[C@H](C(=O)N[C@@H](CCC(N)=O)C(=O)N[C@@H](Cc1c[nH]cn1)C(=O)O)[C@@H](C)O)[C@@H](C)CC)C(C)C)[C@@H](C)CC` [Example 55, (2,6Me-Tyr^1, Aib^2, A5c^11, Nle^14, His^43)hGIP(1-43)-OH]: the Ki in data set [1] worked out at 39 nM. The values for the half-life at 0.1 mg/ml in data set [2] and in data set [3] were 37.7 h and 16.1 h, respectively.

For `CC[C@H](C)[C@H](NC(=O)[C@H](CCCCN)NC(=O)[C@H](CC(=O)O)NC(=O)[C@H](CCSC)NC(=O)[C@H](C)NC(=O)[C@@H](NC(=O)C1(NC(=O)[C@H](Cc2ccc(O)cc2)NC(=O)[C@H](CC(=O)O)NC(=O)[C@H](CO)NC(=O)[C@@H](NC(=O)[C@H](Cc2ccccc2)NC(=O)[C@@H](NC(=O)CNC(=O)[C@H](CCC(=O)O)NC(=O)C(C)(C)NC(=O)[C@@H](N)Cc2ccc(OC(C)=O)cc2)[C@@H](C)O)[C@@H](C)CC)CCCC1)[C@@H](C)CC)C(=O)N[C@@H](Cc1c[nH]cn1)C(=O)N[C@@H](CCC(N)=O)C(=O)N[C@@H](CCC(N)=O)C(=O)N[C@@H](CC(=O)O)C(=O)N[C@@H](Cc1ccccc1)C(=O)N[C@H](C(=O)N[C@@H](CC(N)=O)C(=O)N[C@@H](Cc1c[nH]c2ccccc12)C(=O)N[C@@H](CC(C)C)C(=O)N[C@@H](CC(C)C)C(=O)N[C@@H](C)C(=O)N[C@@H](CCC(N)=O)C(=O)N[C@@H](CCCCN)C(=O)NCC(=O)N[C@@H](CCCCN)C(=O)N[C@@H](CCCCN)C(=O)N[C@@H](CC(N)=O)C(=O)N[C@@H](CC(=O)O)C(=O)N[C@@H](Cc1c[nH]c2ccccc12)C(=O)N[C@@H](CCCCN)C(=O)N[C@@H](Cc1c[nH]cn1)C(=O)N[C@@H](CC(N)=O)C(=O)N[C@H](C(=O)NC1(C(=O)N[C@@H](CCC(N)=O)C(=O)O)CCCC1)[C@@H](C)CC)C(C)C` [Example 29, [Tyr(Ac)^1, Aib^2, A5c^11, 41]hGIP(1-42)-OH], the Ki in data set [1] was 0.73 nM. Besides, the half-life at 0.1 mg/ml in data set [2] was 29.5 h; in data set [3], 18.9 h.

Take `CC[C@H](C)[C@H](NC(=O)[C@H](CCCCN)NC(=O)[C@H](CC(=O)O)NC(=O)[C@H](CCSC)NC(=O)[C@H](C)NC(=O)[C@@H](NC(=O)C1(NC(=O)[C@H](Cc2ccc(O)cc2)NC(=O)[C@H](CC(=O)O)NC(=O)[C@H](CO)NC(=O)[C@@H](NC(=O)[C@H](Cc2ccccc2)NC(=O)[C@@H](NC(=O)CNC(=O)[C@H](CCC(=O)O)NC(=O)C(C)(C)NC(=O)[C@@H](N)Cc2ccc(O)c(OC)c2)[C@@H](C)O)[C@@H](C)CC)CCCC1)[C@@H](C)CC)C(=O)N[C@@H](Cc1c[nH]cn1)C(=O)N[C@@H](CCC(N)=O)C(=O)N[C@@H](CCC(N)=O)C(=O)N[C@@H](CC(=O)O)C(=O)N[C@@H](Cc1ccccc1)C(=O)N[C@H](C(=O)N[C@@H](CC(N)=O)C(=O)N[C@@H](Cc1c[nH]c2ccccc12)C(=O)N[C@@H](CC(C)C)C(=O)N[C@@H](CC(C)C)C(=O)N[C@@H](C)C(=O)N[C@@H](CCC(N)=O)C(=O)N[C@@H](CCCCN)C(=O)NCC(=O)N[C@@H](CCCCN)C(=O)N[C@@H](CCCCN)C(=O)N[C@@H](CC(N)=O)C(=O)N[C@@H](CC(=O)O)C(=O)N[C@@H](Cc1c[nH]c2ccccc12)C(=O)N[C@@H](CCCCN)C(=O)N[C@@H](Cc1c[nH]cn1)C(=O)N[C@@H](CC(N)=O)C(=O)N[C@H](C(=O)N[C@H](C(=O)N[C@@H](CCC(N)=O)C(=O)N[C@@H](Cc1c[nH]cn1)C(=O)O)[C@@H](C)O)[C@@H](C)CC)C(C)C` [Example 73, (3MeO-Tyr^1, Aib^2, A5c^11, His^43)hGIP(1-43)-OH]: the Ki in data set [1] came out at 3.9 nM. The half-life at 0.1 mg/ml in data set [2] was 28.6 h; in data set [3], 11.8 h.

For `CC[C@H](C)[C@H](NC(=O)[C@H](CCCCN)NC(=O)[C@H](CC(=O)O)NC(=O)[C@H](CCSC)NC(=O)[C@H](C)NC(=O)[C@@H](NC(=O)C1(NC(=O)[C@H](Cc2ccc(O)cc2)NC(=O)[C@H](CC(=O)O)NC(=O)[C@H](CO)NC(=O)[C@@H](NC(=O)[C@H](Cc2ccccc2)NC(=O)[C@@H](NC(=O)CNC(=O)[C@H](CCC(=O)O)NC(=O)C(C)(C)NC(=O)[C@@H](N)Cc2c(C)cc(O)cc2C)[C@@H](C)O)[C@@H](C)CC)CCCC1)[C@@H](C)CC)C(=O)N[C@@H](Cc1c[nH]cn1)C(=O)N[C@@H](CCC(N)=O)C(=O)N[C@@H](CCC(N)=O)C(=O)N[C@@H](CC(=O)O)C(=O)N[C@@H](Cc1ccccc1)C(=O)N[C@H](C(=O)N[C@@H](CC(N)=O)C(=O)N[C@@H](Cc1c[nH]c2ccccc12)C(=O)N[C@@H](CC(C)C)C(=O)N[C@@H](CC(C)C)C(=O)N[C@@H](C)C(=O)N[C@@H](CCC(N)=O)C(=O)N[C@@H](CCCCN)C(=O)NCC(=O)N[C@@H](CCCCN)C(=O)N[C@@H](CCCCN)C(=O)N[C@@H](CC(N)=O)C(=O)N[C@@H](CC(=O)O)C(=O)N[C@@H](Cc1c[nH]c2ccccc12)C(=O)N[C@@H](CCCCN)C(=O)N[C@@H](Cc1c[nH]cn1)C(=O)N[C@@H](CC(N)=O)C(=O)N[C@H](C(=O)NC1(C(=O)N[C@@H](CCC(N)=O)C(=O)O)CCCC1)[C@@H](C)CC)C(C)C` [Example 30, (2,6Me-Tyr^1, Aib^2, A5c^11, 41)hGIP(1-42)-OH], in data set [1], the Ki came out at 1.03 nM. The half-life at 0.1 mg/ml in data set [2] is 27.6 h; in data set [3], 7.2 h.

Usually Ki stands for the dissociation constant of the complex between target and ligand, obtained from inhibition or displacement.

These data come from patent US8999940B2 (Ipsen Pharma S.A.S., priority 2008, dated 2015).
